Assay results reported in patent US10278957B2, “Opioid agonist peptides and uses thereof” (Protagonist Therapeutics, Inc., priority 2017, dated 2019).

Assays:
μ-opioid receptor (MOR) = target: T1, μ-opioid receptor (MOR) (Homo sapiens, UniProt P35372); assay: MOR agonist cAMP assay (HitHunter cAMP, forskolin-stimulated); assay type: cell-based
T1 construct: host or cells: cAMP Hunter CHO-K1 OPRM1 Gαi cell line
Experimental: (§1) The HitHunter® cAMP chemiluminescent assay kit (DiscoveRx, Cat# 90-0075 SM25) was used to detect cAMP production in cAMP Hunter™ Gαi cell lines over expressing either Human-ORPM1 (Discoverx, Catalog# 95-0107C2) or Human-ORPD1 (DiscoveRx, Catalog# 95-0108C2). Opioid agonist binding to the Gαi receptors inhibits the intracellular cAMP accumulation induced by forskolin, which activates adenylate cyclase and increases intracellular levels of cAMP.
(§2) Cells were cultured in media consisting of Ham's F-12 Nutrient Mix (Life Technologies, Catalog#31765035), 10% FBS (Life Technologies, Catalog# 16140-071), 4 mM GlutaMAX (Life Technologies, Catalog#35050-061), […] (Life Technologies), 100 ug/ml of Penn-Strep (Life Technologies) and 0.5 mg/ml Geneticin (Life Technologies, Catalog# 10131-027). The cultures were maintained at 37° C. under 5% CO2.
(§3) In preparation for cAMP assay, the cells were seeded at a density of 300,000 cells/ml in 100 ul of media/well in 96-well microplate. Wells that were designated for cAMP standards were left empty.
(§4) Opioid agonist serial dilutions were prepared in separate dilution plate (11-point series of 3× (3-fold) dilution) in Cell Assay buffer, including 3× forskolin for Gαi target. For Hunter CHO-K1 OPRM1 or CHO-K1 OPRD1 Gαi Cell Lines, the final forskolin concentration was 20 uM.
(§5) 15 ul of each 3× opioid agonist serial dilution was added in the presence of forskolin in duplicate to the designated wells. The final concentration of each dilution was at 3× of the final screening concentration. The assay plate was incubated for 30 min, at 37° C. under 5% CO2.
(§6) Cellular cAMP concentrations were measured using the HitHunter cAMP Assay kit following the manufacturer's protocol. HitHunter cAMP assay is a gain-of-signal competitive immunoassay based on Enzyme Fragment Complementation (EFC) technology. The kit uses β-galactosidase (β-gal) enzyme split into Enzyme Donor (ED) and Enzyme Acceptor (EA). The cellular cAMP and ED-labelled cAMP compete for anti-cAMP antibody. […] When cellular cAMP level is high, it competes for the anti-cAMP antibody, thereby releasing ED-cAMP to complement with EA to produce a luminescent signal. The amount of signal is directly proportional to the amount of cAMP in cells and can be quantified using cAMP standards. The assay plates were read using a PerkinElmer Envision instrument to detect the chemiluminescence signal in each well (luminescence reader at 0.1 to 1 second/well). Data analysis was performed using Graphpad Prism 7.EC50 was calculated by nonlinear regression, using the four-parameter hill equation.

δ-opioid receptor (DOR) = target: T2, δ-opioid receptor (DOR) (Homo sapiens, UniProt P41143); assay: DOR agonist cAMP assay (HitHunter cAMP, forskolin-stimulated); assay type: cell-based
T2 construct: host or cells: cAMP Hunter CHO-K1 OPRD1 Gαi cell line
T2 sequence (P41143 whole entry): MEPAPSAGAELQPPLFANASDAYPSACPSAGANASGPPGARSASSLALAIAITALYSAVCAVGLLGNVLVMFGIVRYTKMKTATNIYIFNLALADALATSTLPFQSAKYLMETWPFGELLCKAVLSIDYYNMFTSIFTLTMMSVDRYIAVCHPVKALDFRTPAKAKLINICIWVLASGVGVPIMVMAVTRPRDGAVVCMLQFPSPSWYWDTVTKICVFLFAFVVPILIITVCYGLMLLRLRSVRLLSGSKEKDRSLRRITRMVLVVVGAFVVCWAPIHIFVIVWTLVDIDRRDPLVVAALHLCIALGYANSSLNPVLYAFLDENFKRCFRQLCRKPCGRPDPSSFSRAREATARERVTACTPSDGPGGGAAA
Experimental: as §1, §2, §3, §4, §5, §6

T1 sequence (P35372 whole entry): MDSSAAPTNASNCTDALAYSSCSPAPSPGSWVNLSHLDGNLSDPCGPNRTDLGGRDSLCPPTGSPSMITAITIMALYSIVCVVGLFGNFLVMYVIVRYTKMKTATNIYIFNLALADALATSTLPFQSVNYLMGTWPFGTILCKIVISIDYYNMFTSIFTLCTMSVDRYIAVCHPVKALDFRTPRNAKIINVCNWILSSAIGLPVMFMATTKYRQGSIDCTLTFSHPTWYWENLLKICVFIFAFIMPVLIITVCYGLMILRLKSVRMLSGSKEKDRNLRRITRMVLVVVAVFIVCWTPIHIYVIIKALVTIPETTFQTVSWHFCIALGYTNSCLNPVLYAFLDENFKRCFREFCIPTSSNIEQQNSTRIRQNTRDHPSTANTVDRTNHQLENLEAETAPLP

Structure (SMILES)	EC50 (μ-opioid receptor (MOR))	EC50 (δ-opioid receptor (DOR))
Cc1cc(O)cc(C)c1C[C@H](N)C(=O)N[C@H](C)C(=O)NCC(=O)N[C@H](CC(=O)N(CC(N)=O)CC(F)(F)F)Cc1ccccc1 [compound 122]	< 1 nM	< 1 nM
CCCCCCCCCCCCCCCCN(CC(N)=O)C(=O)C[C@H](Cc1ccccc1)NC(=O)CNC(=O)[C@@H](C)NC(=O)[C@@H](N)Cc1c(C)cc(O)cc1C [compound 125]	1 to 10 nM	1 to 10 nM
CCCC[C@@H](C(=O)O)N(C)C(=O)C[C@H](Cc1ccc(I)cc1)NC(=O)CNC(=O)[C@@H](C)NC(=O)[C@@H](N)Cc1c(C)cc(C(N)=O)cc1C [compound 136]	< 1 nM	< 1 nM
CCCC[C@@H](C(=O)O)N(C)C(=O)C[C@H](Cc1c[nH]c2ccccc12)NC(=O)CNC(=O)[C@@H](C)NC(=O)[C@@H](N)Cc1c(C)cc(C(N)=O)cc1C [compound 139]	< 1 nM	1 to 10 nM
CCCC[C@@H](C(=O)O)N(C)C(=O)C[C@H](Cc1cccc(C)c1)NC(=O)CNC(=O)[C@@H](C)NC(=O)[C@@H](N)Cc1c(C)cc(O)cc1C [compound 141]	< 1 nM	< 1 nM
CCCC[C@@H](C(=O)O)N(C)C(=O)C[C@H](Cc1ccc(C)cc1)NC(=O)CNC(=O)[C@@H](C)NC(=O)[C@@H](N)Cc1c(C)cc(O)cc1C [compound 142]	1 to 10 nM	< 1 nM
CCCC[C@@H](C(=O)O)N(C)C(=O)C[C@H](Cc1ccccc1F)NC(=O)CNC(=O)[C@@H](C)NC(=O)[C@@H](N)Cc1c(C)cc(O)cc1C [compound 143]	< 1 nM	< 1 nM
CCCC[C@@H](C(=O)O)N(C)C(=O)C[C@H](Cc1cccc(F)c1)NC(=O)CNC(=O)[C@@H](C)NC(=O)[C@@H](N)Cc1c(C)cc(O)cc1C [compound 144]	< 1 nM	< 1 nM
CCCC[C@@H](C(=O)O)N(C)C(=O)C[C@H](Cc1ccc(F)cc1)NC(=O)CNC(=O)[C@@H](C)NC(=O)[C@@H](N)Cc1c(C)cc(O)cc1C [compound 145]	< 1 nM	< 1 nM
CCCC[C@@H](C(=O)O)N(C)C(=O)C[C@H](Cc1ccccc1Br)NC(=O)CNC(=O)[C@@H](C)NC(=O)[C@@H](N)Cc1c(C)cc(O)cc1C [compound 146]	< 1 nM	< 1 nM
CCCC[C@@H](C(=O)O)N(C)C(=O)C[C@H](Cc1ccc(I)cc1)NC(=O)CNC(=O)[C@@H](C)NC(=O)[C@@H](N)Cc1c(C)cc(O)cc1C [compound 150]	< 1 nM	< 1 nM
CCCC[C@@H](C(=O)O)N(C)C(=O)C[C@H](Cc1cccc(Cl)c1)NC(=O)CNC(=O)[C@@H](C)NC(=O)[C@@H](N)Cc1c(C)cc(O)cc1C [compound 151]	< 1 nM	< 1 nM
CCCC[C@@H](C(=O)O)N(C)C(=O)C[C@H](Cc1ccc(O)cc1)NC(=O)CNC(=O)[C@@H](C)NC(=O)[C@@H](N)Cc1c(C)cc(O)cc1C [compound 152]	< 1 nM	< 1 nM
CCCC[C@@H](C(=O)O)N(C)C(=O)C[C@H](Cc1c[nH]c2ccccc12)NC(=O)CNC(=O)[C@@H](C)NC(=O)[C@@H](N)Cc1c(C)cc(O)cc1C [compound 153]	1 to 10 nM	< 1 nM
Cc1cc(O)cc(C)c1C[C@H](N)C(=O)N[C@H](C)C(=O)NCC(=O)N[C@H](CC(=O)N(C)[C@@H](CC1CCCCC1)C(=O)O)Cc1ccccc1 [compound 156]	< 1 nM	1 to 10 nM
Cc1cc(O)cc(C)c1C[C@H](N)C(=O)N[C@H](C)C(=O)NCC(=O)N[C@H](CC(=O)N(C)[C@@H](Cc1ccccc1)C(=O)O)Cc1ccccc1 [compound 158]	< 1 nM	< 1 nM

Structure (SMILES)	EC50 (μ-opioid receptor (MOR))	EC50 (δ-opioid receptor (DOR))
Cc1cc(O)cc(C)c1C[C@H](N)C(=O)N[C@H](C)C(=O)NCC(=O)N[C@H](CC(=O)N(C)[C@@H](Cc1ccc(O)cc1)C(=O)O)Cc1ccccc1 [compound 160]	< 1 nM	< 1 nM
CCC[C@@H](C(=O)O)N(C)C(=O)C[C@H](Cc1ccccc1)NC(=O)CNC(=O)[C@@H](C)NC(=O)[C@@H](N)Cc1c(C)cc(O)cc1C [compound 162]	< 1 nM	< 1 nM
CCCC[C@@H](C(=O)O)N(C)C(=O)C[C@H](Cc1cccc(C)c1)NC(=O)CNC(=O)[C@@H](C)NC(=O)[C@@H](N)Cc1c(C)cc(C(N)=O)cc1C [compound 164]	< 1 nM	< 1 nM
CCCC[C@@H](C(=O)O)N(C)C(=O)C[C@H](Cc1ccc(O)cc1)NC(=O)CNC(=O)[C@@H](C)NC(=O)[C@@H](N)Cc1c(C)cc(C(N)=O)cc1C [compound 168]	1 to 10 nM	< 1 nM
Cc1cc(O)cc(C)c1C[C@H](N)C(=O)N[C@H](CC(=O)O)C(=O)NCC(=O)N[C@H](CC(=O)N(C)[C@@H](CC(C)C)C(=O)O)Cc1ccccc1 [compound 169]	< 1 nM	< 1 nM
Cc1cc(O)cc(C)c1C[C@H](N)C(=O)N[C@H](CC(=O)O)C(=O)NCC(=O)N[C@H](CC(=O)N(C)[C@@H](C)C(=O)O)Cc1ccccc1 [compound 170]	< 1 nM	< 1 nM
Cc1cc(O)cc(C)c1C[C@H](N)C(=O)N[C@H](CC(=O)O)C(=O)NCC(=O)N[C@H](CC(=O)N(C)[C@@H](Cc1c[nH]c2ccccc12)C(=O)O)Cc1ccccc1 [compound 171]	< 1 nM	< 1 nM
CC[C@H](C)[C@@H](C(=O)O)N(C)C(=O)C[C@H](Cc1ccccc1)NC(=O)CNC(=O)[C@@H](CC(=O)O)NC(=O)[C@@H](N)Cc1c(C)cc(O)cc1C [compound 172]	< 1 nM	< 1 nM
Cc1cc(O)cc(C)c1C[C@H](N)C(=O)N[C@H](CC(=O)O)C(=O)NCC(=O)N[C@H](CC(=O)N(C)[C@H](C(=O)O)C(C)C)Cc1ccccc1 [compound 173]	< 1 nM	< 1 nM
CCC[C@@H](C(=O)O)N(C)C(=O)C[C@H](Cc1ccccc1)NC(=O)CNC(=O)[C@@H](CC(=O)O)NC(=O)[C@@H](N)Cc1c(C)cc(O)cc1C [compound 174]	< 1 nM	< 1 nM
Cc1cc(O)cc(C)c1C[C@H](N)C(=O)N[C@H](CC(=O)O)C(=O)NCC(=O)N[C@H](CC(=O)N(C)[C@@H](CC1CCCCC1)C(=O)O)Cc1ccccc1 [compound 175]	< 1 nM	< 1 nM
Cc1cc(O)cc(C)c1C[C@H](N)C(=O)N[C@H](CC(=O)O)C(=O)NCC(=O)N[C@H](CC(=O)N(C)[C@H](C(=O)O)c1ccccc1)Cc1ccccc1 [compound 176]	< 1 nM	< 1 nM
Cc1cc(O)cc(C)c1C[C@H](N)C(=O)N[C@H](CC(=O)O)C(=O)NCC(=O)N[C@H](CC(=O)N(C)[C@@H](Cc1ccccc1)C(=O)O)Cc1ccccc1 [compound 177]	< 1 nM	< 1 nM
CCCC[C@@H](C(=O)O)N(C)C(=O)C[C@H](Cc1ccccc1)NC(=O)CNC(=O)[C@@H](CC(=O)O)NC(=O)[C@@H](N)Cc1c(C)cc(O)cc1C [compound 178]	< 1 nM	< 1 nM
Cc1cc(O)cc(C)c1C[C@H](N)C(=O)N[C@H](CC(=O)O)C(=O)NCC(=O)N[C@H](CC(=O)N(C)[C@@H](Cc1ccc(O)cc1)C(=O)O)Cc1ccccc1 [compound 180]	< 1 nM	< 1 nM
CC[C@H](C)[C@@H](C(=O)O)N(C)C(=O)C[C@H](Cc1ccccc1)NC(=O)CNC(=O)[C@H](NC(=O)[C@@H](N)Cc1c(C)cc(O)cc1C)[C@H](C)O [compound 182]	< 1 nM	< 1 nM
